Experimental data as given in patent US20240368150A1 (Hoffmann-La Roche Inc., priority 2021, published 2024).
Where two headings read alike, the source gives them in different places.

How the values were obtained:
primary human T-cells [1] = tested on: primary human T-cells
primary human T-cells [2] = test: Proliferation assay after 5 days (CellTiter-Glo, CD3 stimulation; PBS counter screen); assay type: cell-based; settings: CD3 stimulation; for Emax / Emax proliferation (% activation): 5 days, normalized to reference compound A1 as stimulator control = 100%, DMSO neutral control; for Emax: read-out: Emax proliferation (% activation); for EC50: primary human T-cells, CellTiter-Glo after 5 days, EC50 of fitted sigmoidal curve, read-out: Tcell Proliferation CD3 EC50
In short: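 ATP-based luminescence (CellTiter-Glo 2.0, room temperature) measured proliferation 5 days after compound addition to CD3-stimulated or unstimulated primary human T-cells. Flags marked compounds that lowered viability or activated unstimulated cells.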

Q: How did the EC50 (primary human T-cells [1]) turn out when `CC(C)(C)c1nnc(-c2cc3c(cc2F)S(=O)(=O)C[C@H](N)C(=O)N3Cc2ccccc2Cl)o1` [Example 227, (3R)-3-amino-7-(5-tert-butyl-1,3,4-oxadiazol-2-yl)-5-[(2-chlorophenyl)methyl]-8-fluoro-1,1-dioxo-2,3-dihydro-1λ^6,5-benzothiazepin-4-one] was run?
A: > 20 µM

Q: And the Emax (primary human T-cells [2]; Homo sapiens, T-cell, 120 h)?
A: 39%

Q: And the EC50 (primary human T-cells [2]; Homo sapiens, T-cell, 120 h)?
A: > 20 µM

Q: With `N[C@H]1CS(=O)(=O)c2cc(F)c(-c3nnc(C4CCOCC4)o3)cc2N(Cc2ccc(Cl)cc2)C1=O` [Example 82, (3R)-3-Amino-5-[(4-chlorophenyl)methyl]-8-fluoro-1,1-dioxo-7-(5-tetrahydropyran-4-yl-1,3,4-oxadiazol-2-yl)-2,3-dihydro-1λ^6,5-benzothiazepin-4-one] as the compound, how does the EC50 (primary human T-cells [1]) read?
A: 0.631 µM

Q: What about the Emax (primary human T-cells [2]; Homo sapiens, T-cell, 120 h) of the same compound?
A: 148%

Q: And the EC50 (primary human T-cells [2]; Homo sapiens, T-cell, 120 h)?
A: 0.728 µM

Q: With `CCn1cc(-c2cc3c(cc2F)S(=O)(=O)C[C@H](N)C(=O)N3Cc2ccc(Cl)cc2)cn1` [Example 279] as the compound, how does the EC50 (primary human T-cells [1]) read?
A: 0.47 µM

Q: And the Emax (primary human T-cells [2]; Homo sapiens, T-cell, 120 h)?
A: 90%

Q: What about the EC50 (primary human T-cells [2]; Homo sapiens, T-cell, 120 h) of the same compound?
A: 5.34 µM

Q: What does the source list for `CC(=O)N1CC2CC(c3nnc(-c4cc5c(cc4F)S(=O)(=O)C[C@H](N)C(=O)N5Cc4ccc(Cl)cc4)o3)(C2)C1` [Example 173, (3R)-7-[5-(3-acetyl-3-azabicyclo[3.1.1]heptan-1-yl)-1,3,4-oxadiazol-2-yl]-3-amino-5-1[(4-chlorophenyl)methyl]-8-fluoro-1,1-dioxo-2,3-dihydro-1λ^6,5-benzothiazepin-4-one]?
A: EC50 (primary human T-cells [1]): 2.18 µM; Emax (primary human T-cells [2]; Homo sapiens, T-cell, 120 h): 89%; EC50 (primary human T-cells [2]; Homo sapiens, T-cell, 120 h): 0.596 µM

Q: What does the source list for `CC(C)(C)NC(=O)c1nc(-c2ccc3c(c2)N(Cc2ccc(OC(F)(F)F)cc2)C(=O)[C@@H](N)CS3(=O)=O)no1` [Example 355, 3-[(3R)-3-amino-1,1,4-trioxo-5-[[4-(trifluoromethoxy)phenyl]methyl]-2,3-dihydro-1λ^6,5-benzothiazepin-7-yl]-N-tert-butyl-1,2,4-oxadiazole-5-carboxamide]?
A: EC50 (primary human T-cells [1]): 6.05 µM; Emax (primary human T-cells [2]; Homo sapiens, T-cell, 120 h): 65%; EC50 (primary human T-cells [2]; Homo sapiens, T-cell, 120 h): 1.62 µM

Q: `CN(c1nnc(-c2ccc3c(c2)N(Cc2ccc(Cl)cc2)C(=O)[C@@H](N)CS3(=O)=O)o1)C1CC1` [Example 394, (3R)-3-amino-5-[(4-chlorophenyl)methyl]-7-[5-[cyclopropyl(methyl)amino]-1,3,4-oxadiazol-2-yl]-1,1-dioxo-2,3-dihydro-1λ^6,5-benzothiazepin-4-one] was tested. Which EC50 (primary human T-cells [1]) did it give?
A: 3.09 µM

Q: And the Emax (primary human T-cells [2]; Homo sapiens, T-cell, 120 h)?
A: 98%

Q: And the EC50 (primary human T-cells [2]; Homo sapiens, T-cell, 120 h)?
A: 1.77 µM

Q: What does the source list for `CCn1ccc(-c2cc3c(cc2F)S(=O)(=O)C[C@H](N)C(=O)N3Cc2ccc(Cl)cc2)n1` [Example 280, (3R)-3-amino-5-[(4-chlorophenyl)methyl]-7-(1-ethylpyrazol-3-yl)-8-fluoro-1,1-dioxo-2,3-dihydro-1λ^6,5-benzothiazepin-4-one]?
A: EC50 (primary human T-cells [1]): 0.853 µM; Emax (primary human T-cells [2]; Homo sapiens, T-cell, 120 h): 52%; EC50 (primary human T-cells [2]; Homo sapiens, T-cell, 120 h): 19.5 µM

Q: What does the source list for `Cc1ccncc1-c1nc(-c2cc3c(cc2F)S(=O)(=O)C[C@H](N)C(=O)N3Cc2ccc(Cl)cc2)no1` [Example 310, (3R)-3-amino-5-[(4-chlorophenyl)methyl]-8-fluoro-7-[5-(4-methyl-3-pyridyl)-1,2,4-oxadiazol-3-yl]-1,1-dioxo-2,3-dihydro-1λ^6,5-benzothiazepin-4-one]?
A: EC50 (primary human T-cells [1]): 3.24 µM; Emax (primary human T-cells [2]; Homo sapiens, T-cell, 120 h): 90%; EC50 (primary human T-cells [2]; Homo sapiens, T-cell, 120 h): 2.71 µM

Q: With `CC#CCOc1ccc(CN2C(=O)[C@@H](N)CS(=O)(=O)c3ccc(-c4nnc(C(C)(C)C)o4)cc32)cc1` [Example 441, (3R)-3-amino-7-(5-tert-butyl-1,3,4-oxadiazol-2-yl)-5-[(4-but-2-ynoxyphenyl)methyl]-1,1-dioxo-2,3-dihydro-1λ^6,5-benzothiazepin-4-one] as the compound, how does the EC50 (primary human T-cells [1]) read?
A: 3.85 µM

Q: And the Emax (primary human T-cells [2]; Homo sapiens, T-cell, 120 h)?
A: 128%

Q: And the EC50 (primary human T-cells [2]; Homo sapiens, T-cell, 120 h)?
A: 1.02 µM

Q: Which EC50 (primary human T-cells [1]) does the source give for `COC(=O)N1CCCC(c2nnc(-c3cc4c(cc3F)S(=O)(=O)C[C@H](N)C(=O)N4Cc3ccc(Cl)cc3)o2)C1` (stereo partly drawn) [Example 165, methyl 3-[5-[(3R)-3-amino-5-[(4-chlorophenyl)methyl]-8-fluoro-1,1,4-trioxo-2,3-dihydro-1λ^6,5-benzothiazepin-7-yl]-1,3,4-oxadiazol-2-yl]piperidine-1-carboxylate] here?
A: 0.458 µM

Q: What about the Emax (primary human T-cells [2]; Homo sapiens, T-cell, 120 h) of the same compound?
A: 85%

Q: What about the EC50 (primary human T-cells [2]; Homo sapiens, T-cell, 120 h) of the same compound?
A: 0.309 µM

Q: Which results are given for `CN1CCC(F)(F)C(c2nnc(-c3cc4c(cc3F)S(=O)(=O)C[C@H](N)C(=O)N4Cc3ccc(Cl)cc3)o2)C1` (stereo partly drawn) [Example 158, (3R)-3-amino-5-[(4-chlorophenyl)methyl]-7-[5-(4,4-difluoro-1-methyl-3-piperidyl)-1,3,4-oxadiazol-2-yl]-8-fluoro-1,1-dioxo-2,3-dihydro-1λ^6,5-benzothiazepin-4-one]?
A: EC50 (primary human T-cells [1]): 0.194 µM; Emax (primary human T-cells [2]; Homo sapiens, T-cell, 120 h): 141%; EC50 (primary human T-cells [2]; Homo sapiens, T-cell, 120 h): 2.42 µM

Q: With `CC(C)(C)c1nnc(-c2cc3c(cc2F)S(=O)(=O)C[C@H](N)C(=O)N3Cc2cccc(Cl)c2)o1` [Example 219, (3R)-3-amino-7-(5-tert-butyl-1,3,4-oxadiazol-2-yl)-5-[(3-chlorophenyl)methyl]-8-fluoro-1,1-dioxo-2,3-dihydro-1λ^6,5-benzothiazepin-4-one] as the compound, how does the EC50 (primary human T-cells [1]) read?
A: 3.21 µM

Q: And the Emax (primary human T-cells [2]; Homo sapiens, T-cell, 120 h)?
A: 105%

Q: And the EC50 (primary human T-cells [2]; Homo sapiens, T-cell, 120 h)?
A: 2.74 µM

Q: `CS(=O)(=O)N1CCC(n2nnc(-c3cc4c(cc3F)S(=O)(=O)C[C@H](N)C(=O)N4Cc3ccc(Cl)cc3)n2)CC1` [Example 17, (3R)-3-amino-5-[(4-chlorophenyl)methyl]-8-fluoro-7-[2-(1-methylsulfonyl-4-piperidyl)tetrazol-5-yl]-1,1-dioxo-2,3-dihydro-1λ^6,5-benzothiazepin-4-one] was tested. Which EC50 (primary human T-cells [1]) did it give?
A: 0.262 µM

Q: And the Emax (primary human T-cells [2]; Homo sapiens, T-cell, 120 h)?
A: 239%

Q: What about the EC50 (primary human T-cells [2]; Homo sapiens, T-cell, 120 h) of the same compound?
A: 0.167 µM

Q: What does the source list for `CC(C)(C)c1nnc(-c2cc3c(cc2F)S(=O)(=O)C[C@H](N)C(=O)N3Cc2ccc(S(C)(=O)=O)cc2F)o1` [Example 240, (3R)-3-amino-7-(5-tert-butyl-1,3,4-oxadiazol-2-yl)-8-fluoro-5-[(2-fluoro-4-methylsulfonyl-phenyl)methyl]-1,1-dioxo-2,3-dihydro-1λ^6,5-benzothiazepin-4-one]?
A: EC50 (primary human T-cells [1]): 6.39 µM; Emax (primary human T-cells [2]; Homo sapiens, T-cell, 120 h): 74%; EC50 (primary human T-cells [2]; Homo sapiens, T-cell, 120 h): 5.55 µM

Q: For `CN1CC(c2nnc(-c3cc4c(cc3F)S(=O)(=O)C[C@H](N)C(=O)N4Cc3ccc(Cl)cc3)o2)CC(F)(F)C1` (stereo partly drawn) [Example 153, (3R)-3-amino-5-[(4-chlorophenyl)methyl]-7-[5-(5,5-difluoro-1-methyl-3-piperidyl)-1,3,4-oxadiazol-2-yl]-8-fluoro-1,1-dioxo-2,3-dihydro-1λ^6,5-benzothiazepin-4-one], which EC50 (primary human T-cells [1]) is on record?
A: 0.246 µM

Q: What about the “Emax proliferation (% activation)” value (primary human T-cells [2]) of the same compound?
A: 150 % activation

Q: What about the EC50 (primary human T-cells [2]; Homo sapiens, T-cell, 120 h) of the same compound?
A: 0.112 µM

Q: “(3R)-3-amino-7-[5-[4-(chloromethyl)-4-(hydroxymethyl)cyclohexyl]-1,3,4-oxadiazol-2-yl]-5-[(4-chlorophenyl)methyl]-8-fluoro-1,1-dioxo-2,3-dihydro-1λ^6.5-benzothiazepin-4-one [Example 482]” was tested. Which EC50 (primary human T-cells [1]) did it give?
A: 1.25 µM

Q: And the “Emax proliferation (% activation)” value (primary human T-cells [2])?
A: 106 % activation

Q: And the EC50 (primary human T-cells [2])?
A: 0.786 µM

Q: How did the EC50 (primary human T-cells [1]) turn out when `COC(F)(c1nc(-c2cc3c(cc2F)S(=N)(=O)C[C@H](N)C(=O)N3Cc2ccc(Cl)cc2)no1)C(F)(F)F` (stereo partly drawn) [Example 515, (3R)-3-amino-5-[(4-chlorophenyl)methyl]-8-fluoro-1-imino-1-oxo-7-[5-(1,2,2,2-tetrafluoro-1-methoxy-ethyl)-1,2,4-oxadiazol-3-yl]-2,3-dihydro-1λ^6,5-benzothiazepin-4-one] was run?
A: 4.07 µM

Q: What about the Emax (primary human T-cells [2]; Homo sapiens, T-cell, 120 h) of the same compound?
A: 63%

Q: And the EC50 (primary human T-cells [2]; Homo sapiens, T-cell, 120 h)?
A: 4.91 µM

Q: How did the EC50 (primary human T-cells [1]) turn out when `CC(C)(C)c1nnc(-c2ccc3c(c2)N(Cc2ccc(OC4CC4)cc2)C(=O)[C@@H](N)CS3(=O)=O)o1` [Example 435] was run?
A: 3.28 µM

Q: What about the Emax (primary human T-cells [2]; Homo sapiens, T-cell, 120 h) of the same compound?
A: 117%

Q: What about the EC50 (primary human T-cells [2]; Homo sapiens, T-cell, 120 h) of the same compound?
A: 0.671 µM

Q: With `COC(F)(c1nnc(-c2ccc3c(c2)N(Cc2ccc(Cl)cc2)C(=O)[C@@H](N)CS3(=O)=O)o1)C(F)(F)F` (stereo partly drawn) [Example 388, (3R)-3-amino-5-[(4-chlorophenyl)methyl]-1,1-dioxo-7-[5-(1,2,2,2-tetrafluoro-1-methoxy-ethyl)-1,3,4-oxadiazol-2-yl]-2,3-dihydro-1λ^6,5-benzothiazepin-4-one] as the compound, how does the EC50 (primary human T-cells [1]) read?
A: 0.331 µM

Q: And the Emax (primary human T-cells [2]; Homo sapiens, T-cell, 120 h)?
A: 129%

Q: What about the EC50 (primary human T-cells [2]; Homo sapiens, T-cell, 120 h) of the same compound?
A: 0.166 µM

Q: How did the EC50 (primary human T-cells [1]) turn out when `N[C@H]1CS(=O)(=O)c2cc(F)c(-c3nnc(-c4ccccc4F)o3)cc2N(Cc2ccc(Cl)cc2)C1=O` [Example 108, (3R)-3-amino-5-[(4-chlorophenyl)methyl]-8-fluoro-7-[5-(2-fluorophenyl)-1,3,4-oxadiazol-2-yl]-1,1-dioxo-2,3-dihydro-1λ^6,5-benzothiazepin-4-one] was run?
A: 0.498 µM

Q: And the Emax (primary human T-cells [2]; Homo sapiens, T-cell, 120 h)?
A: 117%

Q: What about the EC50 (primary human T-cells [2]; Homo sapiens, T-cell, 120 h) of the same compound?
A: 1.53 µM

Q: What does the source list for `CC(C)(C#N)Nc1nc(-c2cc3c(cc2F)S(=O)(=O)C[C@H](N)C(=O)N3Cc2ccc(Cl)cc2)no1` [Example 199, 2-methyl-2-[[3-[(3R)-3-amino-5-[(4-chlorophenyl)methyl]-8-fluoro-1,1,4-trioxo-2,3-dihydro-1λ^6,5-benzothiazepin-7-yl]-1,2,4-oxadiazol-5-yl]amino]propanenitrile]?
A: EC50 (primary human T-cells [1]): > 10 µM; Emax (primary human T-cells [2]; Homo sapiens, T-cell, 120 h): 71%; EC50 (primary human T-cells [2]; Homo sapiens, T-cell, 120 h): 2.96 µM

Q: What does the source list for `N[C@H]1CS(=O)(=O)c2cc(F)c(-c3nnc(C4CN(C5CC5)CC(F)(F)C4)o3)cc2N(Cc2ccc(Cl)cc2)C1=O` (stereo partly drawn) [Example 159, (3R)-3-amino-5-[(4-chlorophenyl)methyl]-7-[5-(1-cyclopropyl-5,5-difluoro-3-piperidyl)-1,3,4-oxadiazol-2-yl]-8-fluoro-1,1-dioxo-2,3-dihydro-1λ^6,5-benzothiazepin-4-one]?
A: EC50 (primary human T-cells [1]): 0.218 µM; Emax (primary human T-cells [2]; Homo sapiens, T-cell, 120 h): 121%; EC50 (primary human T-cells [2]; Homo sapiens, T-cell, 120 h): 0.184 µM

Q: With `N[C@H]1CS(=O)(=O)c2cc(F)c(-c3nnc(CC(F)F)o3)cc2N(Cc2ccc(Cl)cc2)C1=O` [Example 71, (3R)-3-Amino-5-[(4-chlorophenyl)methyl]-7-[5-(2,2-difluoroethyl)-1,3,4-oxadiazol-2-yl]-8-fluoro-1,1-dioxo-2,3-dihydro-1λ^6,5-benzothiazepin-4-one] as the compound, how does the EC50 (primary human T-cells [1]) read?
A: > 20 µM

Q: What about the Emax (primary human T-cells [2]; Homo sapiens, T-cell, 120 h) of the same compound?
A: 71%

Q: What about the EC50 (primary human T-cells [2]; Homo sapiens, T-cell, 120 h) of the same compound?
A: < 0.162 µM
